Experiments:
[1] = Pharmacokinetics of formulated GM1 after subcutaneous administration; assay type: in vivo; conditions: Sprague Dawley rats, 30 mg/Kg, all GM1 concentrations tested
Protocol: (§1) FIG. 26. Solubility of GM1 of the Invention and Pharmacokinetics of different formulations of GM1 in Sprague Dawley after subcutaneous administration at a dose of 30 mg/Kg. GM1 was formulated at different GM1 concentrations from 50 mg/mL to 500 mg/mL in water or buffer with or without excipients and cosolvents.
Example 5. Pharmacokinetics of Formulated GM1. The formulated GM1 was administered, subcutaneously, to Sprague Dawley rats and the pharmacokinetics determined (FIG. 26). The plasma GM1 levels returned to normal after 72 hours for all GM1 concentrations tested.

[2] = vendor or literature description; cited from earlier work
[3] = Formulation / solubility of GM1 in water or buffer; assay type: physicochemical; conditions: 50 to 500 mg/mL
Protocol: as §1
(§2) Example 4. Formulation of GM1. Water or buffer solutions were added to GM1 and the suspension stirred until the GM1 was completely dissolved. […] Concentrations of solutions of GM1 prepared by this method included 50 mg/mL, 100 mg/mL, 200 mg/mL, 300 mg/mL, 400 mg/mL and 500 mg/mL. Formulations containing phosphate buffer 0-15 mM (pH 7.0-7.4) were also used and various excipients added including arginine (60-100 mM) and sodium chloride (0-137 mM) (FIG. 26).

[4] = test system: Huntington's disease YAC128 mice; experiment: Motor function (rotarod, narrow beam) in Huntington's disease YAC128 mice; assay type: in vivo; conditions: Alzet pump, intracerebral ventricular injection
Protocol: FIG. 25. Improvement of motor function in Huntington's disease YAC128 mice after ganglioside replacement therapy using ganglioside compositions of the invention. Mice were administered GM1 using an Alzet pump and intracerebral ventricular injection. FIG. 25A. […] FIG. 25B. […] WT mice treated with GM1 (□), solid line; WT mice treated with cerebral spinal fluid (▪) hashed line; YAC128 Huntington's disease mice treated with cerebral spinal fluid (⋄) hashed line; YAC128 Huntington's disease mice treated with GM1 (♦) solid line.
In still other embodiments, gangliosides and other compounds of the invention can be used as a therapeutic to treat Huntington's disease caused by a deficiency of one or more ganglioside species, e.g., GM3, GM2 and/or GM1, FIGS. 20 and 24 (Di Pardo (2016) Front. Neurosci. 10:457). In some embodiments, the ganglioside deficiency is caused by reduced or missing enzyme activity and/or expression selected from GM3 synthase (ST3Gal5), GM2 synthase (B4GalNT1) and GM1 synthase (B3GalT4), FIG. 24 (Desplats (2007) Neurobiol. Dis. 27(3): 265-277). In another preferred embodiment, the ganglioside deficiency encompasses reduced amounts or missing ganglioside selected from GM3, GM2 and/or GM1. […]

[5] = test system: GM3 synthase deficient mice; experiment: Motor and cognitive function, ganglioside replacement therapy in GM3 synthase deficient mice; assay type: in vivo; conditions: 5 mg/kg IP once daily; GM3 synthase deficient mice (knock-outs and heterozygotes)
Protocol: FIG. 15. Motor and Cognitive function of GM3 synthase deficient mice (heterozygotes; HT and homozygotes; KO; 7-10 months old) treated with either saline (Sal) or GM1 (d18:1, C18:0) (30 mg/Kg, intraperitoneal, once daily for 3 weeks) and compared to age matched controlled wild type mice (WT). FIG. 15A. Grip Duration, FIG. 15B. Beam Transversal, and FIG. 15C. Short-term memory impairment (T-maze).
(§3) The minimum effective dose of GM1 of the invention was 5 mg/kg (IP, once daily) when administered as ganglioside replacement therapy in ganglioside deficient mice FIG. 27. […] The predicted therapeutic human dose based on allometric scaling of all animal and human data is predicted to be 2-10 mg/Kg administered daily as a parenteral (e.g., subcutaneous, intraperitoneal, intramuscular). In an exemplary embodiment, the therapeutically effective amount is from about 2 to about 10 mg per kg of body weight per dosage. In an exemplary embodiment, the dose of the GM1 formulation is administered parenterally once daily.

[6] = Stability of GM1 formulations at room temperature; assay type: physicochemical; conditions: water or phosphate buffer 0-15 mM pH 7.0-7.4, arginine 60-100 mM, sodium chloride 0-137 mM
Protocol: as §2

[7] = test system: GM2 synthase deficient mice; experiment: Minimum effective dose and motor/cognitive function, ganglioside replacement therapy in GM2 synthase deficient mice; assay type: in vivo
Protocol: FIG. 14. Motor and Cognitive function of GM2 synthase deficient mice (heterozygotes; HT and homozygotes; KO; 200-300 day old) treated with either saline (Sal) or GM1 (d18:1, C18:0) (30 mg/Kg, intraperitoneal, once daily) and compared to age matched controlled wild type mice (WT). FIG. 14A. Mouse grip strength, and FIG. 14B. Mouse cognitive function (T-maze), were assessed after 3 weeks of dosing.
FIG. 27. Minimum effective dose. Motor function of GM2 synthase deficient mice (heterozygotes; HT, 200-300 day old) treated with GM1(d18:1, C18:0) (intraperitoneal, once daily). FIG. 27A. Mouse grip strength, FIG. 27B. Adhesive removal, and FIG. 27C. Pole climbing.
as §3

Q: With `CCCCCCCCCCCCC/C=C/C(O)C(CO[C@@H]1O[C@H](CO)[C@@H](O[C@@H]2O[C@H](CO)[C@H](O[C@@H]3O[C@H](CO)[C@H](O)[C@H](O[C@@H]4O[C@H](CO)[C@H](O)[C@H](O)[C@H]4O)[C@H]3NC(C)=O)[C@H](O[C@]3(C(=O)O)C[C@H](O)[C@@H](NC(C)=O)[C@@H](C(O)C(O)CO)O3)[C@H]2O)[C@H](O)[C@H]1O)NC(=O)CCCCCCCCCCCCCCCCC` (stereo partly drawn) [GM1, GM1 (d18:1/C18:0)] as the compound, how does the “time after which plasma GM1 levels returned to normal” value [1] read?
A: Its value is 72 h.

Q: What about the “solubility in water” value [2] of the same compound?
A: The value was “effectively no solubility in water”.

Q: And the appearance of solution [3]?
A: Its appearance of solution is “clear, colorless and non-opaque solution”.

Q: What about the rotarod motor function ([4]; FIG. 25A) of the same compound?
A: The rotarod motor function was “Improved rotarod motor function”.

Q: What about the “narrow beam motor function” value ([4]; FIG. 25B) of the same compound?
A: The value was “Improved narrow beam motor function”.

Q: What about the “motor and cognitive deficits” value [5] of the same compound?
A: Its value is “reversing motor and cognitive deficits”.

Q: What about the stability of formulations [6] of the same compound?
A: The stability of formulations was “stable at room temperature for months”.

Q: What about the “motor and cognitive deficits” value ([7]; 5 mg/kg IP once daily, GM2 synthase deficient mice (knock-outs and heterozygotes)) of the same compound?
A: Its value is “reversing motor and cognitive deficits”.

Q: What about the minimum effective dose ([7]; IP, once daily, ganglioside replacement therapy in ganglioside deficient mice (FIG. 27: grip strength, adhesive removal, pole climbing)) of the same compound?
A: Its minimum effective dose is 5 mg/kg.
